These results are taken from patent US20200392116A1, “SUBSTITUTED HETEROCYCLES AS c-MYC TARGETING AGENTS” (NORTHWESTERN UNIVERSITY, priority 2019, published 2020).

Molecules are shown by their SMILES.

This test in a line: Potency code of Table 2 (assay not stated).

Take `CN/N=C(\C)c1cccc(-c2c(OCc3ccc(Cl)cc3)ccc(-c3cc(C(F)(F)F)n(C)n3)c2O)c1` [NUCC-0198405]: the Potency code entry is “+ (>40 +)”.

For `CCc1ccc(Oc2c(-c3ccc(O)cc3O)n[nH]c2C(F)(F)F)cc1` [NUCC-0198406], the Potency code result is on record as “++++ (<10 ++++)”.

With `Cn1nc(C(F)(F)F)cc1-c1ccc(OCc2ccc(Cl)cc2)c(Br)c1O` [NUCC-0198407], the Potency code result was “+++ (10-30 +++)”.

Consider `Cn1nc(-c2ccc(OCc3ccc(Cl)cc3)c(Br)c2O)cc1C(F)(F)F` [NUCC-0198408], for which the Potency code entry was “+ (>40 +)”.

Take `Cn1nc(C(F)(F)F)cc1-c1ccc(OCc2ccc(Cl)cc2)c(-c2ccc(C(N)=O)cc2)c1O` [NUCC-0198409]: the Potency code result was “+ (>40 +)”.

Consider `Cn1nc(C(F)(F)F)cc1-c1ccc(OCc2ccc(Cl)cc2)c(-c2ccccc2OC(F)(F)F)c1O` [NUCC-0198410], for which the Potency code result is listed as “+ (>40 +)”.

`CCc1ccc(Oc2c(-c3ccc(O)cc3O)nn(C)c2C(F)(F)F)cc1` [NUCC-0198411]: the Potency code result is on record as “+++ (10-30 +++)”.

With `Cn1nc(C(F)(F)F)cc1-c1ccc(OCc2ccc(Cl)cc2)cc1O` [NUCC-0198412], the Potency code entry is listed as “+ (>40 +)”.

In the case of `CCOC(=O)c1cc(-c2ccc(OCc3ccc(Cl)cc3)c(-c3ccc(C#N)cc3)c2O)n[nH]1` [NUCC-0200489], the Potency code entry is “+ (>40 +)”.

In the case of `Oc1c(-c2cc(C(F)(F)F)[nH]n2)ccc(OCc2ccc(Cl)cc2)c1Cc1ccccc1Cl` [NUCC-0200490], the Potency code entry was “+ (>40 +)”.

For `Oc1cc(Nc2ccc(Cl)cc2)ccc1-c1cc(C(F)(F)F)[nH]n1` [NUCC-0200491], the Potency code entry is listed as “++++ (<10 ++++)”.

For the compound `Cn1nc(-c2ccc(Nc3ccc(Cl)cc3)cc2O)cc1C(F)(F)F` [NUCC-0200492], the Potency code entry was “+++ (10-30 +++)”.

`Oc1cc(NCc2ccc(Cl)cc2)ccc1-c1cc(C(F)(F)F)[nH]n1` [NUCC-0200493]: the Potency code result is “+ (>40 +)”.

Regarding `Cn1nc(-c2ccc(NCc3ccc(Cl)cc3)cc2O)cc1C(F)(F)F` [NUCC-0200494], the Potency code result is on record as “+ (>40 +)”.

With `Oc1ccc(-c2cc(C(F)(F)F)[nH]n2)c(O)c1-c1cc(C(F)(F)F)cc(C(F)(F)F)c1` [NUCC-0200495], the Potency code result is “++++ (<10 ++++)”.

As to `COc1ccc(-c2c(-c3ccc(O)cc3O)n[nH]c2C(F)(F)F)cc1OC` [NUCC-0200496], the Potency code entry is recorded as “+ (>40 +)”.

Turning to `Nc1ccc(-c2cc(C(F)(F)F)[nH]n2)c(O)c1` [NUCC-0200497], the Potency code result is reported as “+ (>40 +)”.

On to `Cn1nc(-c2ccc(N)cc2O)cc1C(F)(F)F` [NUCC-0200498], for which the Potency code result is “+ (>40 +)”.

For the compound `Oc1cc(OCc2ccc(Cl)cc2)ccc1-c1cc(C(F)(F)F)n(Cc2ccccc2)n1` [NUCC-0200499], the Potency code result was “+ (>40 +)”.

With `Oc1cc(OCc2ccc(Cl)cc2)ccc1-c1cc(C(F)(F)F)nc(-c2cccc(C(F)(F)F)c2)n1` [NUCC-0200500], the Potency code entry is reported as “+ (>40 +)”.

Consider `Oc1cc(OCc2ccc(Cl)cc2)ccc1-c1cc(C(F)(F)F)nc(-c2cc(C(F)(F)F)cc(C(F)(F)F)c2)n1` [NUCC-0200501], for which the Potency code result is listed as “+ (>40 +)”.

As for `Nc1nc(-c2ccc(OCc3ccc(Cl)cc3)cc2O)cc(C(F)(F)F)n1` [NUCC-0200502], the Potency code result was “+ (>40 +)”.

Consider `Oc1cc(OCc2ccc(Cl)cc2)ccc1-c1cc(C(F)(F)F)nc(-c2ccc(F)cc2)n1` [NUCC-0200503], for which the Potency code result was “+ (>40 +)”.

For `N#Cc1cccc(-c2c(OCc3ccc(Cl)cc3)ccc(-c3cc(C(N)=O)[nH]n3)c2O)c1` [NUCC-0200557], the Potency code result is reported as “+ (>40 +)”.

For the compound `Cn1nc(-c2ccc(OCc3ccc(Cl)cc3)c(-c3cccc(C#N)c3)c2O)cc1C(N)=O` [NUCC-0200558], the Potency code result is “++++ (<10 ++++)”.

As for `Oc1cc(Nc2ccc(F)c(F)c2)ccc1-c1cc(C(F)(F)F)[nH]n1` [NUCC-0200559], the Potency code result is given as “++ (30-40 ++)”.

As for `Cn1nc(-c2ccc(Nc3ccc(F)c(F)c3)cc2O)cc1C(F)(F)F` [NUCC-0200560], the Potency code result is listed as “+ (>40 +)”.

As to `Oc1cc(Nc2ccc3c(c2)OCO3)ccc1-c1cc(C(F)(F)F)[nH]n1` [NUCC-0200561], the Potency code entry was “+ (>40 +)”.

In the case of `Cn1nc(-c2ccc(Nc3ccc4c(c3)OCO4)cc2O)cc1C(F)(F)F` [NUCC-0200562], the Potency code entry was “+ (>40 +)”.

Consider `O=CNc1ccc(Nc2ccc(-c3cc(C(F)(F)F)[nH]n3)c(O)c2)cc1` [NUCC-0200563], for which the Potency code entry is reported as “+ (>40 +)”.

On to `Cn1nc(-c2ccc(Nc3ccc(NC=O)cc3)cc2O)cc1C(F)(F)F` [NUCC-0200564], for which the Potency code result was “+ (>40 +)”.

Consider `CN1CCN(c2ccc(-c3cc(C(F)(F)F)[nH]n3)c(O)c2)CC1` [NUCC-0200567], for which the Potency code result is recorded as “+ (>40 +)”.

As to `CN1CCN(c2ccc(-c3cc(C(F)(F)F)n(C)n3)c(O)c2)CC1` [NUCC-0200568], the Potency code result is listed as “+ (>40 +)”.

In the case of `Oc1cc(Nc2ccc(-n3ccnc3)cc2)ccc1-c1cc(C(F)(F)F)[nH]n1` [NUCC-0200569], the Potency code result is on record as “+ (>40 +)”.

On to `Oc1cccc(COc2ccc(Cl)cc2)c1-c1cc(C(F)(F)F)n[nH]1` [NUCC-0200570], for which the Potency code entry was “+ (>40 +)”.

For `N#Cc1cccc(-c2c(C(F)(F)F)n[nH]c2-c2cc(OCc3ccc(Cl)cc3)ccc2O)c1` [NUCC-0200571], the Potency code entry is on record as “+ (>40 +)”.

Turning to `Cc1ccc(-c2c(C(F)(F)F)n[nH]c2-c2cc(OCc3ccc(Cl)cc3)ccc2O)cc1` [NUCC-0200572], the Potency code entry was “+ (>40 +)”.

In the case of `Oc1ccc(OCc2ccc(Cl)cc2)cc1-c1cc(C(F)(F)F)n[nH]1` [NUCC-0200573], the Potency code entry is recorded as “+ (>40 +)”.

Turning to `Oc1ccccc1-c1cc(C(F)(F)F)n[nH]1` [NUCC-0200574], the Potency code result was “+ (>40 +)”.

Regarding `Oc1ccc(OCc2ccc(Cl)cc2)cc1-c1[nH]nc(C(F)(F)F)c1-c1ccc(F)cc1` [NUCC-0200575], the Potency code result was “++++ (<10 ++++)”.

As to `Oc1ccc(OCc2ccc(Cl)cc2)cc1-c1[nH]nc(C(F)(F)F)c1-c1ccccc1Cl` [NUCC-0200576], the Potency code entry is “++++ (<10 ++++)”.

On to `NC(=O)c1cc(-c2ccc(Nc3ccc(Cl)cc3)cc2O)n[nH]1` [NUCC-0200677], for which the Potency code entry is given as “+ (>40 +)”.

Turning to `N#Cc1cc(-c2ccc(Nc3ccc(Cl)cc3)cc2O)n[nH]1` [NUCC-0200678], the Potency code entry is reported as “+ (>40 +)”.

For the compound `Oc1cc(Oc2ccc(Cl)cc2)ccc1-c1cc(C(F)(F)F)[nH]n1` [NUCC-0200679], the Potency code result was “++ (30-40 ++)”.

For the compound `CCc1ccc(Oc2c(-c3ccc(Nc4ccc(Cl)cc4)cc3O)n[nH]c2C(F)(F)F)cc1` [NUCC-0200680], the Potency code result is “+ (>40 +)”.

Consider `CCc1ccc(Oc2c(-c3ccc(Oc4ccc(Cl)cc4)cc3O)n[nH]c2C(F)(F)F)cc1` [NUCC-0200681], for which the Potency code result was “++++ (<10 ++++)”.

Regarding `CCc1ccc(Oc2c(-c3ccc(O)cc3N)nn(C)c2C(F)(F)F)cc1` [NUCC-0200682], the Potency code result was “+ (>40 +)”.

Regarding `CCc1ccc(Oc2c(-c3ccccc3O)n[nH]c2C(F)(F)F)cc1` [NUCC-0200683], the Potency code entry is recorded as “+++ (10-30 +++)”.

Consider `CCc1ccc(Oc2c(-c3ccccc3O)nn(C)c2C(F)(F)F)cc1` [NUCC-0200684], for which the Potency code result was “+ (>40 +)”.

Take `Oc1ccccc1C1=NNC(c2ccccc2)C1` (stereo not drawn) [NUCC-0200685]: the Potency code entry is on record as “+ (>40 +)”.

With `Oc1c(-c2cc(C(F)(F)F)n[nH]2)ccc(OCc2ccc(Cl)cc2)c1-c1ccc2c(c1)OCCO2` [NUCC-0200686], the Potency code entry is “+ (>40 +)”.

As for `Cn1nc(C(F)(F)F)cc1-c1ccc(O)cn1` [NUCC-0200687], the Potency code entry is listed as “+ (>40 +)”.

Regarding `Cn1nc(C(F)(F)F)cc1-c1ccc(N)cn1` [NUCC-0200688], the Potency code result is reported as “+ (>40 +)”.

`Cn1nc(C(F)(F)F)cc1-c1cnc(O)cn1` [NUCC-0200689]: the Potency code result is reported as “+ (>40 +)”.

Regarding `Cn1nc(C(F)(F)F)cc1-c1ccc(OCc2ccc(Cl)cc2)cn1` [NUCC-0200690], the Potency code entry was “+ (>40 +)”.

In the case of `Cn1nc(C(F)(F)F)cc1-c1ccc(NCc2ccc(Cl)cc2)cn1` [NUCC-0200691], the Potency code entry is given as “+ (>40 +)”.

As to `Cn1nc(C(F)(F)F)cc1-c1cnc(OCc2ccc(Cl)cc2)cn1` [NUCC-0200692], the Potency code result was “+ (>40 +)”.

`Oc1cc(Nc2ccc(Cl)c(Cl)c2)ccc1-c1cc(C(F)(F)F)[nH]n1` [NUCC-0200721]: the Potency code entry is reported as “++++ (<10 ++++)”.

Regarding `c1ccc(COc2ccccc2-c2nn[nH]c2-c2ccccc2)cc1` [NUCC-0200722], the Potency code entry is listed as “+ (>40 +)”.

`Cn1nc(C(F)(F)F)cc1-c1ccc(O)c(-c2cc(C(F)(F)F)cc(C(F)(F)F)c2)c1O` [NUCC-0200723]: the Potency code entry is “++ (30-40 ++)”.

On to `Cn1nc(-c2ccc(O)c(-c3cc(C(F)(F)F)cc(C(F)(F)F)c3)c2O)cc1C(F)(F)F` [NUCC-0200724], for which the Potency code entry is reported as “+ (>40 +)”.

On to `Oc1c(-c2cc(C(F)(F)F)[nH]n2)ccc(OCc2ccc(Cl)cc2)c1-c1ccc(C(F)(F)F)cc1` [NUCC-0200725], for which the Potency code entry is “+ (>40 +)”.

As for `Cn1nc(C(F)(F)F)cc1-c1ccc(OCc2ccc(Cl)cc2)c(-c2ccc(C(F)(F)F)cc2)c1O` [NUCC-0200726], the Potency code result is listed as “+ (>40 +)”.

For `Cn1nc(-c2ccc(OCc3ccc(Cl)cc3)c(-c3ccc(C(F)(F)F)cc3)c2O)cc1C(F)(F)F` [NUCC-0200727], the Potency code entry is given as “+ (>40 +)”.

Consider `Oc1c(-c2cc(C(F)(F)F)[nH]n2)ccc(OCc2ccc(Cl)cc2)c1-c1ccc(C(F)(F)F)c(Cl)c1` [NUCC-0200728], for which the Potency code result is recorded as “+ (>40 +)”.

For the compound `Cn1nc(-c2ccc(OCc3ccc(Cl)cc3)c(-c3ccc(C(F)(F)F)c(Cl)c3)c2O)cc1C(F)(F)F` [NUCC-0200729], the Potency code result is on record as “+ (>40 +)”.

With `Oc1c(-c2cc(C(F)(F)F)[nH]n2)ccc(OCc2ccc(Cl)cc2)c1-c1cccc(C(F)(F)F)c1` [NUCC-0200730], the Potency code result was “+ (>40 +)”.

As for `Cn1nc(-c2ccc(OCc3ccc(Cl)cc3)c(-c3cccc(C(F)(F)F)c3)c2O)cc1C(F)(F)F` [NUCC-0200731], the Potency code result is “+ (>40 +)”.

`Oc1c(-c2cc(C(F)(F)F)[nH]n2)ccc(OCc2ccc(Cl)cc2)c1-c1ccc(Cl)c(C(F)(F)F)c1` [NUCC-0200732]: the Potency code entry was “+ (>40 +)”.
